Publication PMC5533769, “A cell-based high-throughput screening assay system for inhibitor compounds of antigen presentation by HLA class II molecule” (Scientific Reports, 2017)
“Also recorded” adds a separate entry of the source. Read-outs that look alike come from different tables or passages of the source.

Tests used:
DR15 (DRB1*15:01) [1] = target: T1, DR15 (DRB1*15:01) (Homo sapiens, UniProt P01903+P01911, OTHER:DRA*01:01ANDEACHDRB1VECTORSWEREINTRODUCEDINTOTHECELLSAT1:1RATIO/OTHER:MBP83-99TODR15(DRB1*15:01)); assay: 96-well plate peptide binding assay, DR15-expressing 3T3 cells, SA-β-gal/4MUG; conditions: live DR15-expressing 3T3, 96-well, 4MUG, 8-h incubation, parental binding subtracted
T1 construct: The open reading frame for DRA or DRB1 were flanked with Xho 1 and EcoR1 sites; expressed in transfected cells
Experimental: (§1) Figure 3 Detection and screening system of antigen peptide binding to HLA on 3T3 cells in 96 well plate. (A) Scheme of the detection of HLA-bound peptides on cells in 96 well plates. HLA expressing cells are incubated with biotinylated antigen peptides, and bound peptides are probed with SA-β-gal, followed by enzyme reaction with chromogenic (ONPG) or fluorogenic substrate (4MUG). (B) Detection of HLA-bound peptides on 3T3 cells using fluorogenic substrate (4MUG) in 96 well plates. Two 96-well plates of DR15-expressing cells were incubated with MBP83-99 for 6 h, fixed with glutaraldehyde, and subjected to blocking with a blocking solution as detailed in the methods section. Thereafter, biotinylated peptides in one plate were probed with low concentration of SA-β-gal (3,000-fold dilution) and detected by using 4MUG. The other plate was analysed using a chromogenic substrate (ONPG) in Supplementary Fig. 3. (C) Time and concentration dependence of MBP83-99 binding to DR15-expressing 3T3 cells. The assay was conducted as in (B).
(§2) Unless otherwise described, the assay was conducted as follows. […] The reaction was stopped by addition of 100 µL of 0.5 M Na2CO3, and fluorescence intensity (Ex: 365 nm, Em: 450 nm) was measured by using a plate reader (Spectra Max plus, Molecular Devices, Sunnyvale, CA, USA). Wells devoid of cells and incubation with biotinylated peptide, but otherwise treated by using the same experimental procedure, were set as blank, and the mean fluorescence value for the wells was subtracted. The apparent Kd values for the binding of MBP83-99 and DR1 (DRB1*01:01) or DR15 (DRB1*15:01) was calculated by double reciprocal plot (1/[P-HLA] = Kd/[HLA]total [P] + 1/[HLA]total; where P represents peptide) or Scatchard plot ([P-HLA]/[P] = [HLA]total/Kd − [P-HLA]/Kd) after subtracting values for HLA-independent peptide binding (parental 3T3 cells) from the respective cells in a peptide concentration dependency experiment. […]

DR15 (DRB1*15:01) [2] = target: T2, DR15 (DRB1*15:01) (Homo sapiens, UniProt P01903+P01911); assay: as above; conditions: parental vs. DR15-expressing 3T3 cells; MBP83-99 5 µM
T2 construct: The open reading frame for DRA or DRB1 were flanked with Xho 1 and EcoR1 sites; expressed in transfected cells
Experimental: as §1, §2

DR1 (DRB1*01:01) [3] = target: T3, DR1 (DRB1*01:01) (Homo sapiens, UniProt P01903+P01911, A100R/D57E/F55L/F60I/F76Y/I96L/L162R/M171V/P40L/Q125E/R42F/V115G/Y59C); assay: 96-well plate peptide binding assay, DR1-expressing 3T3 cells, SA-β-gal/4MUG; conditions: for Kd: live DR1-expressing 3T3, 96-well, 4MUG, parental binding subtracted
T3 construct: The open reading frame for DRA or DRB1 were flanked with Xho 1 and EcoR1 sites; expressed in transfected cells

[4] = system: HLA-DR (DRB1*01:01, DRB1*04:05, DRB1*09:01, DRB1*15:01); assay: FACS binding of biotinylated peptide to panel of HLA-DR on HEK293T cells; set-up: species or system human; conditions: FACS, SA-PE; […]; biotinylated peptide 30 µM, >5 h
[5] = target: T4, HLA-DR1 (DRA*01:01/DRB1*01:01) (Homo sapiens, UniProt P01903+P01911, A100R/D57E/F55L/F60I/F76Y/I96L/L162R/M171V/P40L/Q125E/R42F/V115G/Y59C); assay: FACS binding of biotinylated peptide to HLA-DR1 on HEK293T cells; conditions: SA-PE, biotinylated peptide 30 µM, >5 h, 3 to 6 independent experiments
[6] = system: DRB1 molecules (almost all genotypes); conditions: ref [25]; cited from earlier work
parental 3T3 cells [7] = assay: 96-well plate peptide binding assay, parental 3T3 cells, SA-β-gal/4MUG; set-up: species or system murine; conditions: SA-β-gal 3,000-fold
parental 3T3 cells [8] = assay: FACS binding of biotinylated peptide to parental 3T3 cells; set-up: species or system murine; conditions: SA-PE, parental 3T3, no HLA-DR, biotinylated peptide 30 µM overnight
[9] = target: T4, HLA-DR1 (DRA*01:01/DRB1*01:01); assay: FACS binding of biotinylated peptide to HLA-DR1 on stable 3T3 cells; conditions: SA-PE, stable 3T3, DRA*01:01 + DRB1*01:01, biotinylated peptide 30 µM overnight
[10] = system: HLA-DR (DRB1*01:01, DRB1*04:05, DRB1*09:01, DRB1*15:01); assay: FACS binding of biotinylated peptide to panel of HLA-DR on stable 3T3 cells; set-up: species or system human; conditions: Supplemental Fig. 1 vs. Supplemental Fig. 2
DR1 (DRB1*01:01) [11] = target: T3, DR1 (DRB1*01:01); assay: 96-well competition assay: inhibition of MBP83-99 loading to DR1-expressing 3T3 cells; assay type: binding; conditions: DR1-expressing 3T3; 1 h pre-incubation, then MBP83-99 (5 µM) 6 h; 4MUG
DR15 (DRB1*15:01) [12] = target: T2, DR15 (DRB1*15:01); assay: 96-well competition assay: inhibition of MBP83-99 loading to DR15-expressing 3T3 cells; assay type: binding; conditions: DR15-expressing 3T3; 1 h pre-incubation, then MBP83-99 6 h; 4MUG
[13] = target: HLA-DR4 (DRA*01:01/DRB1*04:05) (Homo sapiens, UniProt P01903+P01911, A100R/A169T/D86S/F76Y/I96L/K127E/L162R/M171V/N62H/P40V/Q125Y/R42H/S133A/S149N/S66Y/V115G/V209L/W38E); assay: FACS binding of biotinylated peptide to HLA-DR4 on HEK293T cells
DR4 (DRB1*04:05) = DR4 (DRB1*04:05) (Homo sapiens, UniProt P01903+P01911, A100R/A169T/D86S/F76Y/I96L/K127E/L162R/M171V/N62H/P40V/Q125Y/R42H/S133A/S149N/S66Y/V115G/V209L/W38E); conditions: ref [24]; cited from earlier work
Experimental: To determine the genotype specificity and relative affinity of known epitope peptides, MBP83-99 and BiP336-355 peptide loading assays were performed on cells expressing DRA*01:01 plus various HLA-DRB1 (Supplemental Fig. 1A). […] However, the extent of peptide loading, which is evaluated by the mean fluorescence intensity (MFI), was the highes ...

[14] = system: HEK293T cells (non-transfected); assay type: binding; conditions: FACS, SA-PE, biotinylated peptide 30 µM, >5 h

## CC[C@H](C)[C@H](NC(=O)[C@H](CC(N)=O)NC(=O)[C@H](CCCCN)NC(=O)[C@H](Cc1ccccc1)NC(=O)[C@H](Cc1ccccc1)NC(=O)[C@H](Cc1c[nH]cn1)NC(=O)[C@@H](NC(=O)[C@@H](NC(=O)[C@@H]1CCCN1C(=O)[C@H](CC(N)=O)NC(=O)[C@@H](N)CCC(=O)O)C(C)C)C(C)C)C(=O)N[C@H](C(=O)N[C@H](C(=O)N1CCC[C@H]1C(=O)N[C@@H](CCCNC(=N)N)C(=O)N[C@H](C(=O)N1CCC[C@H]1C(=O)O)[C@@H](C)O)[C@@H](C)O)C(C)C [MBP83-99, myelin basic protein (MBP) 83–99]
DR15 (DRB1*15:01) [1]; Scatchard plot, R² = 0.8781, read-out: apparent Kd, DR15, Scatchard plot
  Kd: 3 µM
DR15 (DRB1*15:01) [1]; double reciprocal plot, R² = 0.9378, read-out: apparent Kd, DR15, double reciprocal plot
  Kd: 2 µM
DR15 (DRB1*15:01) [2]
  HLA-independent binding share of apparent signal, DR15 cells: < 10%
DR1 (DRB1*01:01) [3]; Scatchard plot, R² = 0.8216, read-out: apparent Kd, DR1, Scatchard plot
  Kd: 14 µM
DR1 (DRB1*01:01) [3]; double reciprocal plot, R² = 0.99, read-out: apparent Kd, DR1, double reciprocal plot
  Kd: 10 µM
DR1 (DRB1*01:01) [3]; parental vs. DR1-expressing 3T3 cells, MBP83-99 5 µM
  HLA-independent binding share of apparent signal, DR1 cells: < 30%

## ACPKYVKQNTLKLATG [HA305-320, influenza hemagglutinin (HA) 305–320, biotinylated influenza hemagglutinin peptide]
[4]
  Peptide binding across HLA-DR genotypes: did increase in any genotypes of DRB1-expressing cells
[5]
  Peptide binding (MFI), HLA-DR1: the highest level
[6]
  Binding to DRB1 genotypes: bind to almost all genotypes of DRB1 molecules; also recorded: binds to every genotype of HLA-DRs
Parental 3T3 cells [7]
  Peptide loading, parental 3T3, 96-well: a significant amount of HA305-320 binding was observed in the parental cells
Parental 3T3 cells [8]
  Peptide binding to parental 3T3 cells (HLA-independent): significant degree of apparent binding; also recorded: bound to the cell surface independently of HLA, especially avidly in 3T3 cells
[9]
  Peptide binding, DR1 on 3T3: increased in cells expressing HLA, especially DR1; also recorded: could be loaded onto HLA to a sufficient level
DR1 (DRB1*01:01) [3]
  Peptide binding to parental 3T3 cells, 96-well, and after maximum: gradually decreased
DR1 (DRB1*01:01) [3]; […], HA305-320, obtained at 8 h
  HLA-independent binding share of entire signal, DR1 cells: exceeded 80%
DR1 (DRB1*01:01) [3]; […], then gradually decreased
  Time to maximum binding, DR1: 8 h
DR1 (DRB1*01:01) [3]; cell-based 96-well assay, […]
  Time to almost plateau loading (Discussion): ~8 h
[10]
  Binding intensity in 3T3 compared with HEK293T cells: far less than those in HEK293T cells

## LMAKARQKVLMPSTMLP [scCLIP, scramble peptide (scCLIP), scramble version of the CLIP peptide]
DR1 (DRB1*01:01) [11]
  Inhibitory effect on MBP83-99 loading, DR1: no inhibitory effect
DR15 (DRB1*15:01) [12]
  Inhibitory effect on MBP83-99 loading, DR15: no inhibitory effect

## RSTMKPVQKVLEDSDLKKSD [BiP336-355, immunoglobulin binding protein (BiP) 336–355, biotinylated self-antigen peptide of BiP]
[4]
  Peptide binding across HLA-DR genotypes: not to other DR-expressing cells
[13]; HEK293T, DRB1*04:05, incubation extended to 20 h, data not shown
  Peptide binding (MFI), HLA-DR4, extended incubation: could not observe a further increase
[13]; SA-PE, HEK293T transiently expressing DRA*01:01 + DRB1*04:05, biotinylated peptide 30 µM, >5 h
  Peptide binding (MFI), HLA-DR4: could bind to DR4-expressing HEK293T cells, although very slightly
DR4 (DRB1*04:05)
  Presentation by DR4: self-antigen presented by DR4 (DRB1*04:05)
[14]
  Peptide binding to control cells: No loading of either peptide was observed
